Experiments:
[1] = target: T1, β-casein (Bos taurus, UniProt P02666); assay: Phosphoprotein detection on HydroGel microarray; conditions: pentaphosphorylated protein, binding solution with gallium chloride
T1 sequence (P02666 16-224): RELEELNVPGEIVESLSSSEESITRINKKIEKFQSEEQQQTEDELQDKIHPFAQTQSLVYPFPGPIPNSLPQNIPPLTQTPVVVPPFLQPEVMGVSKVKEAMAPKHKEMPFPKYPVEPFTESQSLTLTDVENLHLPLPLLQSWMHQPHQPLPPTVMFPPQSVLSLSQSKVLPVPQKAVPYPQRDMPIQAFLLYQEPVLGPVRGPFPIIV
Method: The protein was loaded in a two-fold dilution series from 166 pg-0.324 pg on the microarray.
Four specific, purified proteins including β-casein, ovalbumin, pepsin and bovine serum albumin were arrayed from a source plate (384 well plate) at a concentration of 0.975 μg/mL-0.5 mg/mL in water, onto HydroGel coated slides (Perkin Elmer), using the BioChip Arrayer™ (Packard Instrument Co., Meriden, Conn.). The BioChip Arrayer™ utilizes a PiezoTip™ Dispenser consisting of 4 glass capillaries. Proteins were dispensed from the PiezoTip™ by droplets 333 pL in volume to create array spots 175 microns in diameter with a 500 micron horizontal and vertical pitch (pitch=center to center spacing of spots). Proteins were arrayed in duplicate in four rows, with 10 dilution points, resulting in an array of 160 spots. The resulting concentration range of the array was 166.5 pg/spot-0.325 pg/spot. For detection of phosphoproteins, slides were incubated for 1 hour on a rotator in 1 μM of Compound 2, in buffer containing 0.5 M NaCl, 20% 1,2-propanediol, 1 μM GaCl3, and 0.05 M NaOAc, pH 4.0. Slides were then washed for 1 hour on a rotator in 0.05 M NaOAc, pH 4.0, containing 10% methanol followed by a 15 minute water wash. […] Phosphate content per protein was determined to be as follows: β-casein, five phosphates; ovalbumin, two phosphates; pepsin, one phosphate; and BSA, no phosphates.

[2] = target: T1, β-casein; assay: Detection of phosphoproteins in SDS-polyacrylamide gels with binding solution; conditions: pentaphosphorylated protein, binding solution with gallium chloride, SDS polyacrylamide mini-gel
Method: (§1) Proteins were loaded in two-fold dilution series on SDS polyacrylamide mini-gels from 2 ng-1000 ng; each protein sample was done in series in four replicate gels. The phosphoproteins were α-casein (7 or 8 phosphates); dephosphorylated α-casein (1 or 2 phosphates); β-casein (5 phosphates); ovalbumin (2 phosphates) and pepsin (1 phosphate). BSA contains no phosphates and was used as a negative control.
(§2) Phosphoproteins were separated by SDS-polyacrylamide gel electrophoresis utilizing a 4% T, 2.6% C stacking gel, pH 6.8 and 13% T, 2.6% C separating gel, and pH 8.8, according to standard procedures. % T is the total monomer concentration (acrylamide+crosslinker) expressed in grams per 100 mL and % C is the percentage crosslinker (e.g., N,N′-methylene-bis-acrylamide, N,N′-diacryloylpiperazine or other suitable agent). The separating gels were 8 cm wide by 5 cm high and […] in thickness. After electrophoresis, the gels were fixed by immersing them in 100 mL 45% methanol and 5% acetic acid for 90 minutes. The gels were washed twice in water for a total of 30 minutes. The gels were then added to a binding solution of the invention (Example 1E) and incubated for 120 minutes at room temperature with gentle orbital shaking, typically 50 rpm. The binding buffer contained 50 mM NaOAc (pH 4.0), 250 mM sodium chloride, 20% v/v 1,2-propanediol, 1 μM gallium chloride. […]

[3] = target: pepsin (Sus scrofa, UniProt P00791); assay: as above; conditions: monophosphorylated protein, binding solution with gallium chloride, SDS polyacrylamide mini-gel
Sequence of pepsin (P00791 60-385): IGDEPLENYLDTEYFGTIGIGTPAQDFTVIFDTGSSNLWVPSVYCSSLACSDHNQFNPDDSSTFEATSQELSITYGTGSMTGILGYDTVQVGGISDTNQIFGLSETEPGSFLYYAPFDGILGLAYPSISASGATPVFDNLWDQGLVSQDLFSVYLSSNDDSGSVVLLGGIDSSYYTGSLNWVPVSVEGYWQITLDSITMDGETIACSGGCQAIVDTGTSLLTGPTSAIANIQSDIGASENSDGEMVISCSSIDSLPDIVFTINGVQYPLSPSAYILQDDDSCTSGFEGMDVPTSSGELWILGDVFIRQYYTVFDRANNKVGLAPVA
Method: as §1, §2

Substance: Rhod-5F [Compound 2]
- amount detected on HydroGel microarray [1]: 0.65 pg
- amount detectable in gel [2]: 1 to 2 ng
- amount detectable in gel [3]: 8 ng

— patent US7445894B2, “Compositions and methods for detection and isolation of phosphorylated molecules” (priority 2002, dated 2008)
